Results published in patent publication EP0400480A1, “A method for enhancing the cytotoxicity of anthracyclines through photoactivation” (CONSIGLIO NAZIONALE DELLE RICERCHE, priority 1989, dated 1990).

How the values were obtained:
FRT L5 cells [1] = assay: Growth curve (count of vital cells) of FRT L5 cells after 2 hr incubation with or without 595 nm irradiation (Example 1); type: cell-based, Fisher Rat; conditions: 50 ng/ml, irradiation 595 nm 245 J/cm², curve (f) compared with non-irradiated curve (b)
Protocol: A culture of Fisher Rat Thyroid cells classified as FRT L5 was performed routinely in Petri dishes in a Ham F-12 medium modified by Coon (K.C. Biological Co.) with addition of 5% calf serum (Grand Island Biological Co.) by incubation at 37°C in an atmosphere with 5% CO₂.
For determining the growth curve a suitable number of the colture Petri dishes was trypsinized and the cells were re-suspended in growth medium in such a way as to have a cell concentration of appoximately 10⁶/ml. Suspension volumes containing a number of cells of the order of 10⁵ were poured into dishes of 60 mm diameter and covered with 3 ml culture medium, maintaining the cell suspension under stirring in order to have a uniform cell distribution in the various dishes.
The dishes were put in an incubator for 24 hrs and then incubated for 2 hrs with fresh reaction medium containing […] (5-ID).
5-iminodaunomicin was prepared in a 1.78.10⁻⁵M solution in dejonized bidistilled water and was added to the various dishes in such amounts as to have concentrations of 0,50, 200, 400 and 1000 ng/ml. Incubation of these dishes was performed in the dark while at the same time a dish prepared in the same way and having a 5-iminodaunomicin concentration of 50 ng/ml was incubated under red light radiation of 595 nm wave length. […]

FRT L5 cells [2] = assay: Cell survival of FRT L5 cells relative to non-irradiated culture after incubation with 595 nm irradiation (Examples 2 and 3); type: cell-based, Fisher Rat; conditions: 1000 ng/ml
Protocol: Following the method of Example 1, FRT L5 cells were resuspended, distributed in dishes and incubated for 72 hrs. At this point 5-ID was introduced in the dishes in an amount such as to have a concentration in the medium of 1000 ng/ml and the dishes were incubated for 2 hrs. During this period the various dishes were irradiated with red light of 595 nm with constant radiation density on the dish of an average of 34 mW/cm² for times of from 15 to 120 minutes.
Each irradiation period was selected so that its termination coincided with the incubation end.
The average dose of light administered on the dish in 120 minutes was 245 J/cm².
2, in which the percentage of cell survival refferred to a non-irradiated culture is represented as a function of the light dose in J/cm².
Example 2 was repeated, except that each dish was irradiated for only 15 minute during the 2 hr incubation with 5-ID.
Said 15 minute irradiations were started with increasing delays with respect to the start of the incubation, and precisely with delays of 0,15, 30, 45, 60, 75, 90 and 105 minutes.
The results are reported in figure 3, in which the percentage cell survival, with respect to non- irradiated cultures, is reported as a function of the delay from the irradiation start with respect to the start of the incubation with 5-ID.

SMILES: COc1cccc2c1C(=N)c1c(O)c3c(c(O)c1C2=O)C[C@@](O)(C(C)=O)C[C@@H]3O[C@H]1C[C@H](N)[C@H](O)[C@H](C)O1 [5-ID, 5-iminodaunomicin]
- lowering the number of vital cell (FRT L5 cells [1]): one order of magnitude
- lethal effect (cell survival referred to a non-irradiated culture) (FRT L5 cells [2]; 2 hr incubation, irradiation 595 nm, 34 mW/cm², short time (ca. 30 minutes)): high lethal effect
- effect of incubation without irradiation (FRT L5 cells [2]; without irradiation, short time, see curve (e) of figure 1): does not have a measurable effect
